One experiment deals with SD rats. The experiment is described as follows: Idiopathic pulmonary fibrosis (IPF) model, bleomycin-induced. The class given is in vivo, rat. To be noted: pirfenidone 120 mg/kg intragastric, 28 days.
A further experiment deals with BALB/c mice. The experiment is described as follows: Mouse ear swelling model (xylene induced). Particulars: cream 5 mg/g, 500 μg/mouse on right ear, 40 minutes. The class given is in vivo. As to the method: 35 healthy male BALB/c mice of 6-8 weeks of age and average body weight of 18-25 g supplied by Changzhou Cvens Experimental Animal Co. Ltd. were housed and cared for about for 1 week prior to the experiment. The housing temperature was 25-27° C. with 74% humidity, with alternating 12 hour periods of light and darkness, and free access to food and water. The mice were randomly divided into 4 groups as described in Table 1 below, with 5 mice in each group.
The left ear of each mouse was used as autologous control. 20 μL of xylene (Shanghai Aladdin Bio-Chem Technology Co., Ltd., Shanghai, China) was applied to the right ear of each mouse, both inside and outside. The ear started to swell in about 4 minutes. Then, different amounts of each study treatments or vehicles (as described in Table 1 below) were applied to the right ears in each group. The mice were put back into their cages.
The mice were sacrificed by cervical dislocation after 40 minutes. The left and right ears were cut off. A skin pouch (Electron Microscopy Sciences, Hatfield, USA) with diameter of 8 mm was used to take a piece of ear from the same site of both ears. The weights were recorded the weights and the swelling rates were calculated as follows:
Swelling rate=(right ear weight−left ear weight)/left ear weight×100%

The structures appear in SMILES notation.

Procedure for SD rats: 50 Adult SD rats (Zhejiang Experimental Animal Center (Animal Production License Number: SCXK (Zhejiang, Chi-00, half male and half female were kept at 21-26° C. with 40-70% relative humidity, with free access to food and water.
After 7 days of adaptive feeding, the rats were randomly divided into 5 groups: sham operation group, idiopathic pulmonary fibrosis model group, Monte gavage administrating group, Monte inhalation administrating group and pirfenidone control group.
The rats were anaesthetized and placed on an operating table in the supine position, exposing the trachea. 150 μL of Bleomycin (Bleomycin Hydrochloride for Injection, Zhejiang Hisun Pharmaceutical Co. Ltd, China) in saline solution was injected into the trachea through the gap between the tracheal cartilage at 5 mg/kg. (The sham-operation group were given an equal volume of normal saline.)
The rats were lifted vertically after administration and were rotated to allow the drug to evenly disperse. Once the rats recovered, after approximately 7 days, they were administrated different drugs according to Table 1 below. […]

`Cc1ccc(=O)n(-c2ccccc2)c1` [Postitive Control, pirfenidone]: the HYP in the experiment on SD rats (lung) turned out to be 755.49 ± 66.64 μg/g wet weight. The molecule further registered an IL-10 in the experiment on SD rats (tissue) of 43.52 ± 4.30 pg/mg protein. `COc1cc(C(=O)NS(=O)(=O)c2ccccc2C)ccc1Cc1cn(C)c2ccc(NC(=O)OC3CCCC3)cc12` [zafirlukast]: in the experiment on BALB/c mice, the xylene induced swelling entry is “significantly reduce”.

These data come from patent US20220105082A1, “NEW FORMULATIONS CONTAINING LEUKOTRIENE RECEPTOR ANTAGONISTS” (JIANGYIN MUCOCARE PHARMACEUTICAL CO., LTD., priority 2019, published 2022).
